In patent US20230000813A1, “COMPOUND FOR THE TREATMENT OF BOVINE OR SWINE RESPIRATORY DISEASE” (Intervet Inc., priority 2016, published 2023):
Converted amounts (≈) assume the structure as drawn. Read-outs that look alike come from different tables or passages of the source. Marks after values point to notes of the source that are not given here.

What was measured:
[1] = test system: Mannheimia haemolytica MH 13093 (XB0472-6014.1, BRD field isolate); assay: MIC, broth-microdilution (CLSI VET01-A4); assay type: cell-based
Method in brief: (§1)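 Broth microdilution per CLSI VET01-A4 using doubling dilution series of compound. MIC taken as the lowest concentration with no turbidity visible to the unaided eye, interpreted per CLSI VET01-S3.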

[2] = test system: Mannheimia haemolytica MH 13065 (XB0446-6003.9, BRD field isolate); assay: MIC, broth-microdilution (CLSI VET01-A4); assay type: cell-based
Method in brief: as §1

[3] = test system: M. haemolytica; assay: Mannheimia haemolytica cattle lung infection model, efficacy (Example 10); assay type: in vivo, cattle calves; settings: for Food consumption, cumulated for all animals in the group: 3 calves; for Bacteriological Cure (x of n) / Survival (x of n): calves infected with M. haemolytica, SC, single
Experimental: Unless otherwise described the study was conducted as described in Clinical Example 8
Calves were infected via intratracheal instillation of appr. 300 mL of M. haemolytica PBS suspension containing approximately 4×10^9 CFU M. haemolytica in late log phase on Day 0.
One hour later three animals each were treated with 10 mg/kg of Compound 231(referred to as C. 231) (80 mg/mL in 10% Poloxamer 188), or 10 mg/kg or 5 mg/kg Compound 329 (referred to as C. 329) (150 mg/mL in 35% Cavitron).
The following clinical findings were recorded: The general behavior scores of the animals before (DO am) and after infection with M. haemolytica in the different treated and control groups are indicated in FIG. 8-1: 0=normal; 1=slightly depressive, 2=moderately depressive, 3=highly depressive, 4=recumbency.
The following pathomorphological findings after section on Day 2 were recorded: After measuring the body weight and the lung weight the Lung body mass ratio was calculated as shown in FIG. 8-2. A healthy animal has a lung body mass ration around 1.7 or lower. The area percentage of lung consolidations compared to the total lung tissue and the lung score determined that is a combined score of such percentage of lung consoldiations and the grade. For the “grade” the degree of lung consolidation score was graded from 0 to 3 for each of eight lung lobes: 0 no visible changes, 1 low graded colour changes or induration, 2 medium graded induration, 3 high graded induration, hepatisation, necrosis.
The geometrical means (CFU/g tissue) of bacteriological re-isolations of Mannheimia haemolytica from lung tissue are illustrated in FIG. 8-4.

[4] = test system: Pasteurella multocida PM 12080 (IV102277-0093, BRD field isolate); assay: MIC, broth-microdilution (CLSI VET01-A4); assay type: cell-based
Method in brief: (§2)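 Broth microdilution per CLSI VET01-A4 using doubling dilution series of test compound; results interpreted per CLSI VET01-S3. MIC recorded as lowest concentration giving no turbidity visible to the unaided eye.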

[5] = test system: Mannheimia haemolytica MH 6374 (ATCC 33396, reference strain); assay: MIC, broth-microdilution (CLSI VET01-A4); assay type: cell-based
Method in brief: as §2

[6] = test system: Mannheimia haemolytica MH 10720 (154, BRD field isolate); assay: MIC, broth-microdilution (CLSI VET01-A4); assay type: cell-based
Method in brief: as §2

[7] = test system: Pasteurella multocida PM 6391 (ATCC 43137, reference strain); assay: MIC, broth-microdilution (CLSI VET01-A4); assay type: cell-based
Method in brief: as §2

[8] = test system: Mannheimia haemolytica MH 6357 (M7/2, reference strain, cattle infection strain); assay: MIC, broth-microdilution (CLSI VET01-A4); assay type: cell-based
Method in brief: as §2

[9] = test system: Pasteurella multocida PM 10775 (080130003051, BRD field isolate); assay: MIC, broth-microdilution (CLSI VET01-A4); assay type: cell-based
Method in brief: as §2

[10] = test system: Pasteurella multocida PM 6267 (P 2225 (L386), reference strain, mouse infection strain); assay: MIC, broth-microdilution (CLSI VET01-A4); assay type: cell-based
Method in brief: as §2

[11] = test system: Mannheimia haemolytica MH 12587 (1071, BRD field isolate, macrolide-resistance: erm+, E+); assay: MIC, broth-microdilution (CLSI VET01-A4); assay type: cell-based
Method in brief: as §2

CC(C)(N)C(NC(=O)c1ccc(C#Cc2ccc(CNC3CC3)cc2)cc1)C(=O)NO (stereo not drawn) [C. 329]
MIC [1]: 1.6 µM (≈ 0.673 µg/mL)
MIC [2]: 0.8 µM (≈ 0.336 µg/mL)
Food consumption, cumulated for all animals in the group ([3]; D 0 am, after infection and treatment, 5 mg/kg): 1213 g
Food consumption, cumulated for all animals in the group ([3]; D 0 am, after infection and treatment, 10 mg/kg): 1800** g
Food consumption, cumulated for all animals in the group ([3]; D 0 pm, 5 mg/kg): 4800 g
Food consumption, cumulated for all animals in the group ([3]; D 0 pm, 10 mg/kg): 4800 g
Food consumption, cumulated for all animals in the group ([3]; D +1 am, 5 mg/kg): 4800 g
Food consumption, cumulated for all animals in the group ([3]; D +1 am, 10 mg/kg): 4800 g
Food consumption, cumulated for all animals in the group ([3]; D +1 pm, 5 mg/kg): 4800 g
Food consumption, cumulated for all animals in the group ([3]; D +1 pm, 10 mg/kg): 4800 g
Food consumption, cumulated for all animals in the group ([3]; D −1 (before infection), 5 mg/kg): 4800 g
Food consumption, cumulated for all animals in the group ([3]; D −1 (before infection), 10 mg/kg): 4800 g
Bacteriological Cure (x of n) ([3]; 5 mg/kg BW): 1/3
Survival (x of n) ([3]; 5 mg/kg BW): 3/3
Bacteriological Cure (x of n) ([3]; 10 mg/kg BW): 3/3
Survival (x of n) ([3]; 10 mg/kg BW): 3/3
efficacy against an artificial lung infection with M. haemolytica in the calf ([3]; tested dosages 10 mg/kg for C 231 and 10 mg/kg and 5 mg/kg for C 329, conclusion in words): effective
MIC PM 12080 ([4]; Pasteurella multocida PM 12080): <=0.1 μM
MIC ([4]; strain PM 12080): 0.032 µg/mL (≈ 0.0761 µM)
MIC ([5]; Mannheimia haemolytica MH 6374, read-out: MIC MH 6374): 0.8 µM
MIC ([5]; strain MH 6374): 0.25 µg/mL
MIC ([6]; Mannheimia haemolytica MH 10720, read-out: MIC MH 10720): 0.4 µM
MIC ([6]; strain MH 10720): 0.5 µg/mL
MIC PM 6391 ([7]; Pasteurella multocida PM 6391): <=0.1 μM
MIC ([7]; strain PM 6391): 0.063 µg/mL (≈ 0.15 µM)
MIC ([8]; Mannheimia haemolytica MH 6357, read-out: MIC MH 6357): 1.6 µM
MIC ([8]; strain MH 6357): 0.5 µg/mL
MIC PM 10775 ([9]; Pasteurella multocida PM 10775): <=0.1 μM
MIC ([9]; strain PM 10775): ≤0.016 µg/mL
MIC PM 6267 ([10]; Pasteurella multocida PM 6267): <=0.1 μM
MIC ([10]; strain PM 6267): ≤0.016 µg/mL
MIC MH 12587 ([11]; Mannheimia haemolytica MH 12587, macrolide-resistant): 1.6 µM (≈ 0.673 µg/mL)
MIC ([11]; strain MH 12587, macrolide-resistant): 0.5 µg/mL (≈ 1.19 µM)
